Assay results taken from ChEMBL document CHEMBL3992559, “Human carbonic anhydrase inhibitory profile of mono- and bis-sulfonamides synthesized via a direct sulfochlorination of 3- and 4-(hetero)arylisoxazol-5-amine scaffolds” (Bioorg Med Chem, 2017).
pKi: −log10 of the molar value.

Legend:
[1] = biological target: Carbonic anhydrase 2 (Homo sapiens, UniProt P00918); test: Inhibition of recombinant human carbonic anhydrase-2 assessed as reduction in enzyme-catalyzed hydration activity using CO2 as substrate preincubated for 15 mins followed substrate addition measured after 10 to 100 sec by phenol red dye based stopped flow assay
[2] = biological target: Carbonic anhydrase 4 (Homo sapiens, UniProt P22748); test: Inhibition of recombinant human carbonic anhydrase-4 assessed as reduction in enzyme-catalyzed hydration activity using CO2 as substrate preincubated for 15 mins followed substrate addition measured after 10 to 100 sec by phenol red dye based stopped flow assay
Chain of Carbonic anhydrase 4 (P22748 whole entry): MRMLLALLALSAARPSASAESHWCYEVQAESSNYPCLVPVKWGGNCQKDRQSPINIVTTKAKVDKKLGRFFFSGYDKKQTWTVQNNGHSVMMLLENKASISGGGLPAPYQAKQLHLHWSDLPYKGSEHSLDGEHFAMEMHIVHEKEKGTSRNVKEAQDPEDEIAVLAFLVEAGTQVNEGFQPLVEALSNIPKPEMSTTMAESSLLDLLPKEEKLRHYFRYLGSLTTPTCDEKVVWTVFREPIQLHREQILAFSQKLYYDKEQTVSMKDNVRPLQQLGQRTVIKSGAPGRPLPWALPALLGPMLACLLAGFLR

[3] = biological target: Carbonic anhydrase 1 (Homo sapiens, UniProt P00915); test: Inhibition of recombinant human carbonic anhydrase-1 assessed as reduction in enzyme-catalyzed hydration activity using CO2 as substrate preincubated for 15 mins followed substrate addition measured after 10 to 100 sec by phenol red dye based stopped flow assay
Chain of Carbonic anhydrase 1 (P00915 whole entry): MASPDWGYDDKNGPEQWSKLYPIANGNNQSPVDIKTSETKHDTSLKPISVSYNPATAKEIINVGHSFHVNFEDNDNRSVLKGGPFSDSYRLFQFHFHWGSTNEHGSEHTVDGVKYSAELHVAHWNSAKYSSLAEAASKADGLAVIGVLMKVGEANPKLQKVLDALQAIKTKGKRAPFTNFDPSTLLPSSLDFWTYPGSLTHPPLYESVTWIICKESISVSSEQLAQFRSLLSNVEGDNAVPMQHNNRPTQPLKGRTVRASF

[4] = biological target: Carbonic anhydrase 7 (Homo sapiens, UniProt P43166); test: Inhibition of recombinant human carbonic anhydrase-7 assessed as reduction in enzyme-catalyzed hydration activity using CO2 as substrate preincubated for 15 mins followed substrate addition measured after 10 to 100 sec by phenol red dye based stopped flow assay
Chain of Carbonic anhydrase 7 (P43166 whole entry): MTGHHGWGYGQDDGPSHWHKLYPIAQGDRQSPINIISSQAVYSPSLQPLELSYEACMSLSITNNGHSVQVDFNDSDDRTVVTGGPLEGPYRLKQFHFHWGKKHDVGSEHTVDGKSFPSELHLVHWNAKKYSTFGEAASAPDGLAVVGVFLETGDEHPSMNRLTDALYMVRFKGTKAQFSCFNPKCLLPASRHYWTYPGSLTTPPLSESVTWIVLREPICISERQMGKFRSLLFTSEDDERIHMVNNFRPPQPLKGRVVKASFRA

Measured: pKi

COc1ccc(S(N)(=O)=O)c(-c2cc(NC(C)=O)on2)c1
< 5.00: [1] | [2] | [3] | [4]

CC(=O)Nc1cc(-c2cc(S(N)(=O)=O)c(C)s2)no1
< 5.00: [2] | [3] | [4]

COc1ccc(-c2noc(N)c2S(N)(=O)=O)cc1S(N)(=O)=O
< 5.00: [3] | [4]

CC(=O)Nc1cc(-c2ccc(C)c(S(N)(=O)=O)c2)no1
< 5.00: [2] | [3]

COc1ccc(-c2c(C)noc2NC(C)=O)cc1S(N)(=O)=O
< 5.00: [1] | [2] | [3] | [4]

COc1ccc(-c2cc(NC(C)=O)on2)cc1S(N)(=O)=O
< 5.00: [1] | [2] | [3] | [4]

COc1ccc(S(N)(=O)=O)c(-c2noc(N)c2S(N)(=O)=O)c1
< 5.00: [2] | [3] | [4]

COc1ccc(S(N)(=O)=O)c(-c2c(C)noc2NC(C)=O)c1
< 5.00: [1] | [2] | [3] | [4]

CC(=O)Nc1onc(C)c1-c1ccc(S(N)(=O)=O)c(C)c1
< 5.00: [2]
